Assay [1] concerns apomorphine syndrome. The note with it: claimed in prior art; cited from earlier work.
In assay [2] the target is T1, dopamine receptors (Rattus norvegicus, UniProt P61169).
T1 construct: The striata were dissected, pooled and homogenized in 50 mM Tris-HCl buffer (pH 7.6); from tissue; host or cells: striata of male Sprague-Dawley rats, membrane fraction
Kind of assay: Receptor binding assay: in vitro block of 3H-spiperone binding, rat striatal membranes. The arrangement: species or system Male Sprague-Dawley rats. The note with it: rat striatum; 3H-spiperone 0.4 nM; 10 minutes at 37° C. Here is the method: The assays have been carried out using a cell harvester equipment. The incubations were made in quadruplicate, each well containing membrane suspension (2.5 mg/0.5 ml), ^3 H-spiperone (0.4 nM) and the test compound in a final volume of 0.5 ml. After incubation for 10 minutes at 37° C., the contents of the wells were rapidly filtered and washed on Whatman GF/B filters using the Cell harvester. The specific binding was defined as the difference of ligand bound in the […] of 1 μM (+)-butaclamol. The test results are expressed as IC50.

For assay [3], the system named is DA receptors linked to the nigro neostriatal DA system (apomorphine stereotypies). Kind of assay: Reduction of apomorphine-induced stereotypies in the rat. Format: in vivo, Male Sprague-Dawley rats. The note with it: i.p.; 60 min prior to apomorphine hydrochloride 1 mg/kg s.c.; 60 min observation. The text has this: (§1) There are presently several techniques available to study DA receptor blockage in the brain in vivo. One method is based on the ability of antipsychotic drugs to block the behavioral effects induced by the DA agonist apomorphine in the rat. Several studies indicate an excellent correlation between the in vivo DA receptor blockage as measured in the apomorphine test and therapeutic efficacy of different antipsychotic drugs. Apomorphine produces in rats and other species a characteristic syndrome consisting of repetitive movements (stereotypies) and hyperactivity which appear to be due to activation of postsynaptic DA receptors in the brain (J. Pharm. Pharmacol. 19, 627, 1967; J. Neurol. transm. 40, 97-113, 1977). […]
Directly after injection, the animals were placed in the cages, one in each cage. […] The strength of the stereotype was scored on a 0-3 scale as follows:
(§2) In the second system the number of animals displaying hyperactivity caused by apomorphine were scored. […] The ED50 were calculated from log dose-response curves by the method of least squares from 4-6 dose levels with 6-8 animals per dose level.

In assay [4] the test system is DA receptors in subcortical mesolimbic structures (apomorphine hyperactivity). Description: Reduction of apomorphine-induced hyperactivity in the rat. It counts as in vivo, Male Sprague-Dawley rats. The note with it: i.p.; 60 min prior to apomorphine hydrochloride 1 mg/kg s.c.; 60 min observation.
Text: as §1, with “1977). The stereotypies (chewing, licking, biting) appear mainly to be induced via activation of DA receptors linked to the nigro neostriatal DA system (J. Psychiat. Res., 11, 1, 1974) whereas the increased locomotion (hyperactivity) mainly appears to be due to activation of DA receptors in subcortical mesolimbic structures (nucleus olfactorium, nucleus accumbens) i.e. the mesolimbic DA system. (J. Pharm. Pharmacol. 25, 1003, 1973).” for “1977).”
as §2

T1 sequence (P61169 whole entry): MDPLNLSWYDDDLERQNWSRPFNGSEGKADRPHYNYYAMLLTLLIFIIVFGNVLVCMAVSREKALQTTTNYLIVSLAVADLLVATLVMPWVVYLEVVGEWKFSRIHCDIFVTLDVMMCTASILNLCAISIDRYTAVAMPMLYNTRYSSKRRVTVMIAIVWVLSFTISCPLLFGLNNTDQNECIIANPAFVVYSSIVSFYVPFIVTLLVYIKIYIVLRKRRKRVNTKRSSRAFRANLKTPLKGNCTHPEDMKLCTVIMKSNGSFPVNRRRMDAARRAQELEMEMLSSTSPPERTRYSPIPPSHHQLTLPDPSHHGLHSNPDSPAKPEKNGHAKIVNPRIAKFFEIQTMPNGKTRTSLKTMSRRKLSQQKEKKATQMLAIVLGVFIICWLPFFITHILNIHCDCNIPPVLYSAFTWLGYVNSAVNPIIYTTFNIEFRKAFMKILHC

Take `CCN1CCCC1CNC(=O)c1c(O)c(Cl)cc(Cl)c1OC` (centres unmarked): the “antagonism/inhibition of the apomorphine syndrome in the rat” value in assay [1] is “potent inhibitors”.
For `CCCc1cc(OC)c(OC)c(C(=O)NC[C@@H]2CCCN2CC)c1O`, in assay [2], the IC50 came out at 2.4 nM.
Still for that read-out and setting: the result for `CCN1CCC[C@H]1CNC(=O)c1c(O)c(Br)cc(OC)c1OC` reads 1.4 nM; that for `CCc1cc(OC)c(OC)c(C(=O)NC[C@@H]2CCCN2CC)c1O`, 1.3 nM.
`CCN1CCC[C@H]1CNC(=O)c1c(O)ccc(OC)c1OC` came in with an IC50 in assay [2] of 8.8 nM.
`CCN1CCC[C@H]1CNC(=O)c1c(O)c(Cl)cc(OC)c1OC`: the IC50 in assay [2] was found to be 0.3 nM.
On the same count and under the same terms, under `C=CCN1CCC[C@H]1CNC(=O)c1c(O)c(Br)cc(OC)c1OC` stands 2.3 nM.
Same read-out and setting: under `COc1cc(Br)c(O)c(C(=O)NC[C@H]2CCCN2Cc2ccc(F)cc2)c1OC` stands 1.3 nM.
On to `CCN1CCC[C@H]1CNC(=O)c1c(O)c(Cl)cc(Cl)c1OC`, for which the “Reduction of stereotypies ED50” value in assay [3] came to 2.4 µmol/kg. In addition, the “Reduction of hyperactivity ED50” value in assay [4] was found to be 0.11 µmol/kg.
Consider `CCN1CCC[C@H]1CNC(=O)c1c(OC)ccc(Br)c1OC` [Remoxipride], for which, in assay [1], the “antagonism/inhibition of the apomorphine syndrome in the rat” value is given as “potent antagonist”.

The record behind these values is patent publication US5240957A, “Oxysalicylamido derivatives” (Astra Lakemedel Akteibolag, priority 1984, dated 1993).
